system: diabetic skin wounds; test: Homing of FAM-peptides to skin wounds in diabetic mice; assay type: in vivo, mouse (BKS(D)-Lepr^db/JOrlRj); conditions: 1.5 mg/kg systemically, 150 min, day 7 wound, anti-FAM staining, one animal with two wounds per group
Excerpt: Next, we wanted to study the utility of the newly identified peptides as vehicles for targeting diabetic skin wounds. Compromised angiogenesis in diabetic wounds leads to deficient granulation tissue formation and poses an important hindrance to systemic drug delivery. BALB/cJRj and diabetic male BKS(D)-Lepr^db/JOrlRj mice were wounded and systemically dosed with fluorophore-labeled peptides 7 d after the skin wounding. For all tested peptides, we observed peptide accumulation in the granulation tissue where angiogenesis takes place (Fig S6).
Figure S6. Microdialysis-captured peptides home to skin wounds in diabetic mice. […] Full-thickness wounds 6 mm in diameter were cut in the back skin of 14-wk-old male diabetic mice. After 7 d, 1.5 mg/kg of each peptide or PBS was injected systemically. The CAR peptide was used as a control. The peptide circulated for 150 min before the vasculature was perfused. The wounds were fixed with 4% PFA in PBS, and microscopic sections were stained with anti-FAM and hematoxylin. (A) Images of entire wounds. (B) Magnifications of areas marked in (A) with anti-CD31 staining of the adjacent sections. (A, B) Scale bars are 500 μm for (A) and 125 μm for (B). Images are representative of one animal with two wounds in each group.
Male BALB/cJRj and diabetic male BKS(D)-Lepr^db/JOrlRj mice were used for the peptide homing experiment. The BALB/cJRj mice were 8 wk old and weighed 24–28 g. […]
After 24-h (or 4 h for eyeballs) fixation in 4% PFA, the tissues were rinsed in 70% EtOH and embedded in paraffin. To avoid autofluorescence, the peptides were detected by staining the sections with rabbit anti-FITC/-FAM (71-1900; Thermo Fisher Scientific, 1:400 BALB/cJRj and C57BL/6Rj or 1:100 BKS(D)-Lepr^db/JOrlRj) in Dako antibody diluent (Agilent) and Biocare Medical Rabbit on Rodent (RMR622H; Biocare Medical) with XM-Factor (XMF963C; Biocare Medical) as described previously ([Robinson et al, 2010]; [Urakami et al, 2011]; [Toba et al, 2014]; [Pemmari, et al, 2020b]). […]

| Sequence | homing to skin wounds in diabetic mice |
| --- | --- |
| CDDYQQISC [FAM-labeled synthetic peptide …] | home and penetrate to the granulation tissue |
| CPKKHHLDC [FAM-labeled synthetic peptide …] | home and penetrate to the granulation tissue |
| CYHDTYPNC [FAM-labeled synthetic peptide …] | home and penetrate to the granulation tissue |
